Patent US12427134B2, “Methods of reducing the risk of cardiovascular events in a subject with atrial fibrillation and/or atrial flutter” (priority 2019, dated 2025)

Tested on: hypertriglyceridemic patients with cardiovascular disease or at high risk for cardiovascular disease
Assay: REDUCE-IT: fasting lipid, lipoprotein and inflammatory biomarkers and serum EPA, change from baseline
Format: in vivo, human
Conditions: for Approximated LDL-C (Hopkins), median difference from placebo in percent change from baseline: Hodges-Lehmann estimate
Experimental: Fasting Lipid Profile: The fasting lipid panel included: TG, TC, LDL-C, HDL-C, non-HDL-C, and VLDL-C. At all visits, LDL-C was calculated using the Friedewald equation. At Visit 1 and Visit 1.1 direct LDL-C were used if at the same visit TG >400 mg/dL (4.52 mmol/L). These LDL-C values were used for the evaluation of the LDL-C inclusion criterion (LDL-C qualifying measurements for randomization) and for the assessment of changes in the statin therapy when LDL-C was not at goal. […] In addition, irrespective of the TG levels, at Visit 2 (0 Months of Follow-up, baseline) and at Visit 4 (12 Months of Follow-up), LDL-C were measured by preparative ultracentrifugation. These preparative ultracentrifugation LDL-C measurements were used in the statistical analysis including the calculation of the percent change from baseline (1 year versus baseline). Hopkins LDL-C was calculated for each visit.
Biomarkers Assays: The biomarker assays included: hsCRP, Apo B and hsTnT.
The fasting lipid panel was tested at Screening (Visit 1 or Visit 1.1), Randomization visit (Visit 2; Day 0), Visit 3 (Day 120; ˜4 Months) and all other follow-up visits including the last visit. For change from baseline to 1 year preparative ultracentrifugation measurements for LDL-C were analyzed, unless this value was missing. If the LDL-C preparative ultracentrifugation values were missing, then another LDL-C value was used, with prioritization of values obtained from LDL-C Direct measurements, followed by LDL-C derived by the Friedewald calculation (only for subjects with TG <400 mg/dL), and finally LDL-C derived using the calculation published by Hopkins University investigators (Martin S S, Blaha M J, Elshazly M B, et al. Comparison of a novel method vs the Friedewald equation for estimating low-density lipoprotein cholesterol levels from the standard lipid profile. JAMA. 2013; 310:2061-8.). In addition, change from baseline to day 120 in LDL-C utilizing Friedewald's and Hopkins methods was analyzed, using the arithmetic mean of LDL-C obtained at Visit 2 (Day 0) and the preceding Visit 1 (or Visit 1.1). If one of these values was missing, the single available LDL-C value was used. LDL-C according to Hopkins was calculated at each visit.
The randomization visit was considered Baseline. If a baseline value was not available from the randomization visit, then the latest screening value was used. For measurements of lipids, lipoproteins and inflammatory markers, the change and the percent change were summarized at each visit. Since these biomarkers are typically not normally distributed, the Wilcoxon rank-sum test was used for treatment comparisons of the percent change from baseline, and medians and quartiles were provided for each treatment group. The medians of the differences between the treatment groups and 95% CIs were estimated with the Hodges-Lehmann method. In addition, shift-tables were generated as appropriate.

[1] = Last Visit, vs placebo, ITT population
[2] = baseline to the last study value

## CC/C=C\C/C=C\C/C=C\C/C=C\C/C=C\CCCC(=O)OCC [AMR101, eicosapentaenoic acid ethyl ester]
Baseline, ITT population
  Apo B Median Observed Value: 82.0 mg/dL
  LDL-C Hopkins Median Observed Value: 85.8 mg/dL
  LDL-C derived Median Observed Value: 74.0
  Non-HDL-C Median Observed Value: 118.0 mg/dL
  Triglycerides Median Observed Value: 216.5 mg/dL
  hsCRP Median Observed Value: 2.2 mg/L
Last Visit, ITT population
  LDL-C derived Median Observed Value: 77.0
  Triglycerides Median Absolute Change from Baseline: 45.0 mg/dL
[1]
  LDL-C derived Between Group Difference Median % Change from Baseline: −6.6%
  LDL-C derived Between Group Difference Median Absolute Change from Baseline: −5.0
Year 1
  HDL-C, median: 39.0 mg/dL
  LDL-C, median: 77.0 mg/dL
Year 1, vs placebo
  HDL-C, median between group difference, % change from baseline: −6.3%
  HDL-C, median between group difference, absolute change from baseline: -2.5 mg/dL
  LDL-C, median between group difference, % change from baseline: −6.6%
  LDL-C, median between group difference, absolute change from baseline: -5.0 mg/dL
Year 1, vs placebo, ITT population
  Triglycerides Between Group Difference Median Absolute Change from Baseline: 44.5 mg/dL
Year 2, ITT population
  Non-HDL-C Median Observed Value: 113.0 mg/dL
Year 2, vs placebo, ITT population
  Triglycerides Between Group Difference Median % Change from Baseline: −19.7%
Year 3, ITT population
  HDL-C Median Observed Value: 40.0 mg/dL
  Non-HDL-C Median Absolute Change from Baseline: 4.8 mg/dL
Year 4, ITT population
  Non-HDL-C Median % Change from Baseline: 4.2%
Year 5, ITT population
  Non-HDL-C Median % Change from Baseline: 4.4%
Baseline to one year
  Approximated LDL-C (Hopkins), median change from baseline: -1.1 mg/dL
  Approximated LDL-C (Hopkins), median percent change from baseline: −1.2%
  Triglycerides, median change from baseline: -39.0 mg/dL
  Triglycerides, median percent change from baseline: −18.3%
[2]
  Approximated LDL-C (Hopkins), median change from baseline: -1.0 mg/dL
  Approximated LDL-C (Hopkins), median percent change from baseline: −1.2%
  Triglycerides, median change from baseline: -45.0 mg/dL
  Triglycerides, median percent change from baseline: −21.6%
Last study value
  Approximated LDL-C (Hopkins), median difference from placebo in percent change from baseline: −7.4%
One year
  Triglycerides, greater reduction than in the placebo group: 44.5 mg/dL
  Approximated LDL-C (Hopkins), median difference from placebo in percent change from baseline: −11.4%
One year, Hodges-Lehmann approach
  Triglycerides, median reduction from baseline greater than in the placebo group: 19.7%
